Reference: paper PMC12291762 (Antioxidants, 2025)

What was measured:
COX-2 = target: T1, COX-2 (Homo sapiens, UniProt P35354); assay: Fluorometric COX-2 inhibitor screening kit; assay type: biochemical; settings: mean ± standard error, three independent measurements
T1 construct: purchased Abcam ab283401
T1 sequence (P35354 18-604): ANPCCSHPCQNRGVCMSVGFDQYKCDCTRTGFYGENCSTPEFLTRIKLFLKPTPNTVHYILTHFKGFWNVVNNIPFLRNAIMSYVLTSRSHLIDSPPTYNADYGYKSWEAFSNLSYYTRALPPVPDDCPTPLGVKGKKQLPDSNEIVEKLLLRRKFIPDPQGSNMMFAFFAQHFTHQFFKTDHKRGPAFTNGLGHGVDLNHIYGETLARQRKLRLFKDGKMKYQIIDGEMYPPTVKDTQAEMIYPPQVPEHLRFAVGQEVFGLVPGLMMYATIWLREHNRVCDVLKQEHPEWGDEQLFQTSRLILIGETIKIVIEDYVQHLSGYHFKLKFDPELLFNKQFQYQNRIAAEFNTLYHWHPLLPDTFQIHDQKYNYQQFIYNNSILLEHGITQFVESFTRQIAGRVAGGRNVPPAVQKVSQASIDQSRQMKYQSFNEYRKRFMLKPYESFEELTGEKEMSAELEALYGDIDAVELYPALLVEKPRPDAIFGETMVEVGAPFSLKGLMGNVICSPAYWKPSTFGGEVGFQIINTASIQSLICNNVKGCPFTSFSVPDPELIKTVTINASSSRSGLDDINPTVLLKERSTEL
Experimental: The inhibitory activity of the tested compounds against COX-1 and COX-2 isoforms was assessed using fluorometric cyclooxygenase inhibitor screening kits (Catalog Numbers ab204698 and ab283401, respectively; Abcam, Cambridge, UK). These assays detect the formation of prostaglandin G2, a product of COX enzymatic activity, via fluorometric measurement.
Stock solutions of the test compounds were prepared at a concentration of 5 mM in DMSO and subsequently diluted with the same solvent to obtain the test solutions. For the assay preparation, 2 μL of each test solution was diluted with 8 μL of COX assay buffer. The solvent control (SC) consisted of 2 μL of DMSO and 8 μL of assay buffer, while the enzyme control (EC) contained 10 μL of assay buffer alone. Sample wells (S) received 10 μL of the diluted test solutions. All other steps were in accordance with the manufacturer’s protocol and the previously published article. Fluorescence was measured kinetically over a 10 min period at 25 °C, using the excitation and emission wavelengths of 535 nm and 587 nm, respectively. The percentage of inhibition was calculated as follows:(3) % Relative Inhibition=Slope of EC−Slope of S/Slope of EC×100
Fluorescence measurements were conducted on a BioTek Synergy LX multi-mode reader (Winooski, VT, USA).

[1] = test system: local oxidative stress parameters; assay: Local redox state (edema-affected paw tissue homogenate) 24 h after carrageenan; assay type: in vivo, Wistar albino rats; settings: inflamed paw tissue; for Local nitrites level (reduction, p < 0.05): comparator not given
Experimental: Following 24 h of carrageenan-induced paw edema inflammation model and intraperitoneal anesthesia induced by ketamine/xylazine (100/10 mg/kg of BW), the animals were sacrificed, while whole-blood samples and edema-affected paw tissues were isolated. After centrifugation of whole blood, plasma and erythrocyte lysate samples were separated for further examination of the applied compounds’ effects on the systemic redox balance state. Pro-oxidative markers including superoxide anion radical (O2∙^−), hydrogen peroxide (H2O2) nitrites (NO2^−), and index of lipid peroxidation measured as thiobarbituric acid (TBA) reactive substances (TBARS) were determined from plasma samples, while the antioxidant capacity, including superoxide dismutase (SOD) and catalase (CAT) activity, as well as the reduced glutathione (GSH) level were examined in erythrocyte lysate samples [46]. […] Edema-affected paw tissue samples were weighed (100 mg) and homogenized (OmniPrep™ multi-sample homogenizer, Omni International, Kennesaw, GA, USA) in 900 µL phosphate buffer on ice (pH = 7.4), and centrifuged at 12,000 rpm for 20 min. These supernatant samples were used for the determination of the aforementioned pro-oxidative and antioxidative parameters levels. All oxidative stress analyses were performed spectrophotometrically using a Shimadzu UV 1800 spectrophotometer (Kyoto, Japan).
Determination of the O2∙^− level was conducted by adding 950 µL of a Nitro Blue Tetrazolium (NBT) mixture with TRIS buffer in 50 µL of sample, measured at the 550 nm wavelength. The level of H2O2 was determined during the oxidation of phenol red by H2O2, which was catalyzed with horseradish peroxidase and measured at the 610 nm wavelength. Indirect measurement of nitrites was performed by the precipitation of samples with 30% sulfo-salicylic acid, followed by vortexing and centrifugation at 3000 rpm for 15 min. The equal volumes of isolated supernatant and Griess’ reagent (containing 1% sulfanilamide in 5% phosphoric acid/0.1% naphthalene ethylenediamine-dihydrochloride) were incubated for 10 min and measured at the 550 nm wavelength. The TBARS concentration was determined by adding 400 µL of sample to 200 µL of TBA in 0.05 M NaOH, followed by 15 min incubation at 100 °C. Measurement was performed at the 530 nm wavelength.
The epinephrine method was used for SOD determination. By adding 100 µL of sample, the same volume of epinephrine, and 1000 µL of carbonate buffer, the measurement was performed at the 470 nm wavelength. The determination of CAT activity was based on the preparation of a mixture containing 100 µL of sample, 50 µL of catalase buffer, and 1000 µL of 10 mM H2O2, which was measured at the 230 nm wavelength.

| SMILES | IC50 (COX-2) [µM] | Local SOD activity compared to Dex rats [1] | Local SOD activity compared to untreated (negative control) rats [1] | Local TBARS level compared to Dex group [1] | Local TBARS level compared to Sol rats [1] | Local nitrites level (reduction, p < 0.05) [1] |
| --- | --- | --- | --- | --- | --- | --- |
| C[C@H](NC(=O)[C@@H](C)c1cccc(C(=O)c2ccccc2)c1)C(=O)O [Compound 2, ((S)-2-(3-benzoylphenyl)propanoyl)-L-alanine] | > 100 | increase the SOD activity | increase the SOD activity | no statistical differences | reduce the TBARS level | markedly reduced |
| C[C@H](C(=O)NCC(=O)O)c1cccc(C(=O)c2ccccc2)c1 [Compound 1, (S)-(2-(3-benzoylphenyl)propanoyl)glycine] | > 100 | – | – | – | – | – |
| C[C@H](C(=O)N[C@@H](Cc1c[nH]c2ccccc12)C(=O)O)c1cccc(C(=O)c2ccccc2)c1 [Compound 4, ((S)-2-(3-benzoylphenyl)propanoyl)-L-tryptophan] | 37.5 ± 3.43 | – | – | – | – | – |

Further lines, with some results ahead:

| IC50 (COX-2) [µM] | SMILES | Local SOD activity compared to Dex rats [1] | Local SOD activity compared to untreated (negative control) rats [1] | Local TBARS level compared to Dex group [1] | Local TBARS level compared to Sol rats [1] | Local nitrites level (reduction, p < 0.05) [1] |
| --- | --- | --- | --- | --- | --- | --- |
| > 100 | C[C@H](C(=O)N[C@@H](Cc1ccccc1)C(=O)O)c1cccc(C(=O)c2ccccc2)c1 [Compound 3, ((S)-2-(3-benzoylphenyl)propanoyl)-L-phenylalanine] | – | – | – | – | – |
| > 100 | C[C@H](C(=O)NCCCC(=O)O)c1cccc(C(=O)c2ccccc2)c1 [Compound 5, (S)-4-(2-(3-benzoylphenyl)propanamido)butanoic acid] | – | – | – | – | markedly reduced |
